# Measurements: patent US20240300902A1, “NOVEL TRANSGLUTAMINASE 2 INHIBITOR AND USE THEREOF” (MD BIOLAB CO., LTD., priority 2021, published 2024)
# Experiments:
# [1] = target: T1, guinea pig liver-originated transglutaminase 2 (Cavia cutleri, UniProt P08587); test: In vitro transglutaminase 2 assay (1), [1,4-14C] putrescine incorporation into succinylated casein; type: biochemical
# T1 construct: 1 mU of guinea pig liver-originated transglutaminase 2 (Sigma, St. Louis, MO, USA); purchased Sigma; host or cells: guinea pig liver
# T1 sequence (P08587 1-690): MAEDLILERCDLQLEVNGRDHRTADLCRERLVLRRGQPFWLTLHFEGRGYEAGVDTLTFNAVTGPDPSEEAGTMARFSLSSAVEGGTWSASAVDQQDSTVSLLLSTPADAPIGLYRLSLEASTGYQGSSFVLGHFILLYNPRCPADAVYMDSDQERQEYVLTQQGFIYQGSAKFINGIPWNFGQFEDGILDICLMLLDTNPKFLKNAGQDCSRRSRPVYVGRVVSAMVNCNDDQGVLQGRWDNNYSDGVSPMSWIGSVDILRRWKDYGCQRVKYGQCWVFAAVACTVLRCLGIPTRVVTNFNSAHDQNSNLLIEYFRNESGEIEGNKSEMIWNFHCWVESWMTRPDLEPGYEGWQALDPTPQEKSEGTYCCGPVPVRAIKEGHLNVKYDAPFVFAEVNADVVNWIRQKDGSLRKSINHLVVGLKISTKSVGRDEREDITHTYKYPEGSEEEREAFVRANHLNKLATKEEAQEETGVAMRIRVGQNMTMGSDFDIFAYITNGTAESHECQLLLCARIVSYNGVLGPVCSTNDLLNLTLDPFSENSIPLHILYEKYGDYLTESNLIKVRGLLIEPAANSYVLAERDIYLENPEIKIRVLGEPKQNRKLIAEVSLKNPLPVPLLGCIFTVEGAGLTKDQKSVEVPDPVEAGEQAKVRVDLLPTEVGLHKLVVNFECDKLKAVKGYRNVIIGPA
# Method: Incorporation of [1,4-14C] putrescine into succinylated casein was measured to determine the inhibitory effect of each compound on the activity of transglutaminase 2 (TGase 2). 1 mU of guinea pig liver-originated transglutaminase 2 (Sigma, St. Louis, MO, USA) was preincubated with various concentrations of GK13 or GK921 in a 0.1 mL reaction buffer with or without 10 mM CaCl2 for 10 minutes, and 0.4 mL of a substrate solution containing 2% (w/v) succinylated casein and 100 nCi of [1,4-14C] putrescine. After incubation at 37° C. for 1 hour, 4 mL of cold (4° C.) 7.5% (w/v) trichloroacetic acid (TCA) was added to terminate the reaction. The TCA-insoluble precipitate was recovered with a GF/A-grade glass filter (Millipore, Billerica, MA, USA), washed with cold 5% (w/v) TCA, dried, and assessed with a scintillation counter (Beckman Coulter, Brea, CA, USA) to evaluate radiolabel binding. Transglutaminase 2 which was pre-incubated only with a buffer was used as a positive control. The scintillation counts were compared between the example and the positive control, and IC50 values were determined through the logistic linear regression method. The presented data were the mean values of three independent experiments. In this experimental example and the following experimental example, Streptonigrin (described as KN383 in each figure of the drawing), which is an existing transglutaminase 2 inhibitor, was used as a positive control.
# ACHN cells = test: Preclinical xenograft tumor model (ACHN, BALB/c nude mice); type: in vivo; conditions: 1 mg/kg or 10 mg/kg PO once daily, 5 days per week
# Method: Six-week-old male-specific, pathogen-free BALB/c nude mice (n=20) were purchased from the central lab (Animal Inc., Seoul, Korea). Each mouse was injected subcutaneously with ACHN cells (5.0×10^6 cells/each). When tumors reached an appropriate size (100 to 150 mm^3 for ACHN), mice were randomly selected and classified into 4 groups (n=4 to 5) according to the volume and weight of the tumor: The control group was untreated; the streptonigrin-treated group was administered in an amount of 0.2 mg/kg; and the LDD3959-treated group was administered in an amount of 1 mg/kg or 10 mg/kg. The streptonigrin and LDD3959 were orally administered to each treatment group, once daily for 5 days per week. For tumor identification, the mice were euthanized with 7.5% CO2 and the tumors were recovered for immunohistochemical analysis. The tumor volume was calculated according to the following equation: V=(A×B×B)/2 where V is the volume (mm^3), A is the long diameter (mm), and B is the short diameter (mm). The experiment was reviewed and approved by the Institutional Animal Care and Use Committee (IACUC) of the National Cancer Center Research Institute (NCCRI). […]
# [2] = system: MDA-MB231 breast cancer cells; test: Cell viability in breast cancer cell lines according to treatment time; type: cell-based; conditions: MDA-MB231, 24, 48 and 72 hours
# Method: Breast cancer cells (50,000 cells/well, 100 μl) were cultured in 96-well microplates, and after 24 hours, LDD3959 was added to each well in various concentrations, using a serum-free cell culture medium. In each well, a reaction was performed at 37° C. in the presence of 5% CO2 for 2 hours.
# Next, the existing culture medium was replaced with a culture medium containing 10% FSB, and 24, 48, and 72 hours of reactions were performed. After the completion of each reaction, the exiting culture medium was removed, a culture medium containing a water soluble tetrazolium (WST) salt was added, the plate was allowed to react at 37° C. in the presence of 5% CO2 for a duration in the range of 1 hour to 3 hours, and the absorbance was measured at 450 nm.
# [3] = Toxicity by single oral administration; type: in vivo, ICR mice; conditions: 500 to 2000 mg/kg
# Method: LDD3959 was orally administered once for each concentration in the range of 500 to 2000 mg/kg, and adverse events (body weight changes, feed intake changes, general appearance changes) were checked for 2 weeks. After 2 weeks of administration, the mice were sacrificed. Then, the mice underwent hematological examination and measurement of weight change of each organ thereof. In addition, the same experiment was performed on five ICR female mice and five ICR male mice to identify gender-dependent differences.
structure (smiles),measurement,setting,value
"O=C1C(Cl)=C(Cl)C(=O)c2[nH]c(-c3ccc(Br)c(F)c3)nc21 [LDD3959, 2-(4-bromo-3-fluorophenyl)-5,6-dichloro-1H-benzo[d]imidazole-4,7-dione]",mean value of the 2 μM LDD3959,"[1]; 2 μM, negative control 248.5, control 3606.5, standard deviation 0.01",0.09
same,"TGase2 enzyme activity inhibitory effect compared with streptonigrin (KN383, positive control)",[1]; same dose (2 μM),two-fold or greater stronger TGase2 enzyme activity inhibitory effects than the control
same,tumor volume increase rate,ACHN cells,tumor volume increase rate decreased as the LDD3959 dose increased
same,apoptosis level according to time,[2],"exhibited a low apoptosis level at the initial stage, but the apoptosis level increased"
same,deaths,"[3]; 2 weeks, female and male ICR mice",no deaths of the subjects occurred
same,adverse responses in blood,[3]; after 2 weeks,no specific adverse responses occurred in blood
